Reference: ChEMBL document CHEMBL5325484, “Quinolinetrione-tacrine hybrids as multi-target-directed ligands against Alzheimer's disease” (Bioorg Med Chem, 2023)

Assays:
HepG2 [1] = assay: Cytotoxicity against human HepG2 cells assessed as reduction in cell viability at 1 uM incubated for 24 hrs by MTT assay; format: toxicity, cell-based; conditions: hepg2, 24 h
HepG2 [2] = assay: Cytotoxicity against human HepG2 cells assessed as reduction in cell viability at 10 uM incubated for 24 hrs by MTT assay relative to control; format: toxicity, cell-based; conditions: hepg2, 24 h
HepG2 [3] = assay: Cytotoxicity against human HepG2 cells assessed as reduction in cell viability at 100 uM incubated for 24 hrs by MTT assay; format: toxicity, cell-based; conditions: hepg2, 24 h
Acetylcholinesterase = Acetylcholinesterase (Homo sapiens, UniProt P22303); assay: Inhibition of recombinant human AChE using acetylthiocholine iodide as substrate preincubated with compound for 20 mins followed by substrate addition and measured after 240 sec by spectrophotometer based Ellman's method
Sequence of Acetylcholinesterase (P22303 whole entry): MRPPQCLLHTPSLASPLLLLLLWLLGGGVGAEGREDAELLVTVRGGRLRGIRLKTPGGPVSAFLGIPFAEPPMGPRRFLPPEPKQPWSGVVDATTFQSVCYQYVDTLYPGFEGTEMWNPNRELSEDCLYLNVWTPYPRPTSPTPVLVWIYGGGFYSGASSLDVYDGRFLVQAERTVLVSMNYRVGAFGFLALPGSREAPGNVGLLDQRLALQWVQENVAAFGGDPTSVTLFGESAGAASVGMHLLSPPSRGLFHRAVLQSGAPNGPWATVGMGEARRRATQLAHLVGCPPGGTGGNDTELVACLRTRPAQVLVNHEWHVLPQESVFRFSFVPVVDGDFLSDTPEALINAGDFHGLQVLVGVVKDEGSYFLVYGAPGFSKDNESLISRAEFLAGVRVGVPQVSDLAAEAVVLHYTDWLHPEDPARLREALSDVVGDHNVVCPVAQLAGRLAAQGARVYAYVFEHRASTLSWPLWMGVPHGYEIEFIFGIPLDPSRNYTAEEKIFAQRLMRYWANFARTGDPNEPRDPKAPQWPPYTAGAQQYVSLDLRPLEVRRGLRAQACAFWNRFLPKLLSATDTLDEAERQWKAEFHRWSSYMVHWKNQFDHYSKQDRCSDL

Cholinesterase = Cholinesterase (Homo sapiens, UniProt P06276); assay: Inhibition of human serum BChE using butyrylthiocholine iodide as substrate preincubated with compound for 20 mins followed by substrate addition and measured after 240 sec by spectrophotometer based Ellman's method; format: cell-free
Sequence of Cholinesterase (P06276 whole entry): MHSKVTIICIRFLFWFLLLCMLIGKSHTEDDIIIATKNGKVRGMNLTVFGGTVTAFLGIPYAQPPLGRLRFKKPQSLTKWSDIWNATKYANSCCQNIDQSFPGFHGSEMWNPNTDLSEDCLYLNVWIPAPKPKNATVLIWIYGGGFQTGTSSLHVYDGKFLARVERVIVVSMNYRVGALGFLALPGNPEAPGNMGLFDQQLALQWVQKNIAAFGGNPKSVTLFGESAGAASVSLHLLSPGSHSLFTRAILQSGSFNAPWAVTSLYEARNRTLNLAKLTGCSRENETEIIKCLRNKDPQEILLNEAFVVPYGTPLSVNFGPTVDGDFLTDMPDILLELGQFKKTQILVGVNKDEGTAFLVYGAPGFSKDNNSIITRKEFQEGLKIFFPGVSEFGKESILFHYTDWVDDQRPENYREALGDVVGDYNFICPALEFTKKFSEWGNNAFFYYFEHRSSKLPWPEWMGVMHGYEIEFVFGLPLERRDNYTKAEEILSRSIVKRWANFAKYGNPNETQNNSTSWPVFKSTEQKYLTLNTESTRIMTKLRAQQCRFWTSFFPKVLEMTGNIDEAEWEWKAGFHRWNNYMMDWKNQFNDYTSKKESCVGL

In the case of `Cc1cc(=O)[nH]c2c1C(=O)C(NCCCCNc1c3c(nc4ccccc14)CCCC3)=CC2=O`, the Activity (HepG2 [1]) is reported as “Non-Toxic”, the Activity (HepG2 [2]) is reported as 14% and the Activity (HepG2 [3]) is reported as “Toxic”. For the same molecule, the IC50 (Acetylcholinesterase) was 58.3 nM and the IC50 (Cholinesterase) was 109 nM.

For `Cc1cc(=O)[nH]c2c1C(=O)C(NCCCNc1c3c(nc4cc(Cl)ccc14)CCCC3)=CC2=O`, the Activity (HepG2 [1]) was “Non-Toxic”, the Activity (HepG2 [2]) was 50% and the Activity (HepG2 [3]) was “Toxic”. For the same molecule, the IC50 (Acetylcholinesterase) was 11.1 nM and the IC50 (Cholinesterase) was 1340 nM.

`Cc1cc(=O)[nH]c2c1C(=O)C(NCCNc1c3c(nc4cc(Cl)ccc14)CCCC3)=CC2=O` was tested, and the Activity (HepG2 [1]) was “Non-Toxic”, the Activity (HepG2 [2]) was 50% and the Activity (HepG2 [3]) was “Toxic”. The IC50 (Acetylcholinesterase) was 121 nM and the IC50 (Cholinesterase) was 2100 nM.

With `Cc1cc(=O)[nH]c2c1C(=O)C(NCCCCNc1c3c(nc4cc(Cl)ccc14)CCCC3)=CC2=O` the Activity (HepG2 [1]) was “Non-Toxic”, the Activity (HepG2 [2]) was 50% and the Activity (HepG2 [3]) was “Toxic”. The IC50 (Acetylcholinesterase) was 5.58 nM and the IC50 (Cholinesterase) was 2830 nM.

For `Cc1cc(=O)[nH]c2c1C(=O)C(NCCNc1c3c(nc4ccccc14)CCCC3)=CC2=O`, the Activity (HepG2 [1]) was “Non-Toxic”, the Activity (HepG2 [2]) was 12% and the Activity (HepG2 [3]) was “Toxic”. The IC50 (Acetylcholinesterase) was 667 nM and the IC50 (Cholinesterase) was 182 nM.
